Results: ChEMBL document CHEMBL3301562, “MMV Box screening against Plasmodium falciparum protein kinases and aminoacyl tRNA synthetases”

Assays:
Type in all cases: functional
Proline--tRNA ligase = biological target: T1, Proline--tRNA ligase (Plasmodium falciparum (isolate 3D7), UniProt Q8I5R7); assay: MMV: ProRS recombinant Plasmodium falciparum Prolyl-tRNA-synthetase, assay with yeast tRNA, ATP, and proline and 3 uM MMV malaria box compound, assay read out with kinase glo as % inhibition.
T1 sequence (Q8I5R7 whole entry): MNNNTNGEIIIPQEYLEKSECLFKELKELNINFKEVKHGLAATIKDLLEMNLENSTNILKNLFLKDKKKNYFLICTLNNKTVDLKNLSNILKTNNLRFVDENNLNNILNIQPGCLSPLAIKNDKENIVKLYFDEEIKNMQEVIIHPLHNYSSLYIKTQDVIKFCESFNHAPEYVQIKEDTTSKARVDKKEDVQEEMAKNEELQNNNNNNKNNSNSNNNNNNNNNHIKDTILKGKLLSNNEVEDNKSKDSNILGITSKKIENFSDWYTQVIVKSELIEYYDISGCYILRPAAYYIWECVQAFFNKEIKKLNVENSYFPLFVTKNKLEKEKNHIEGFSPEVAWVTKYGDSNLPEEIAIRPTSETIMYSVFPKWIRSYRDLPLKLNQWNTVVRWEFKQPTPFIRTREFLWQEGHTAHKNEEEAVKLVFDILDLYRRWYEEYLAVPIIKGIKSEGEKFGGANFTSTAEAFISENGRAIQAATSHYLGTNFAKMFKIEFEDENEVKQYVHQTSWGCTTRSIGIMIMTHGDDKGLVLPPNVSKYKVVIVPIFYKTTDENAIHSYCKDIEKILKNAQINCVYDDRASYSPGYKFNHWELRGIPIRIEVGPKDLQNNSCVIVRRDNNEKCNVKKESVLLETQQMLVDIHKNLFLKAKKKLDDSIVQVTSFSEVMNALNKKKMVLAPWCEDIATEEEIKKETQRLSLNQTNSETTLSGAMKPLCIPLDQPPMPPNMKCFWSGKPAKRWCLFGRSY

[1] = biological target: T2, Putative uncharacterized protein pk7 (Plasmodium falciparum, UniProt O96214); assay: Final concentrations were 1 uM ATP, 2 mM DTT, 20 mM MgCl2, 2 mM MnCl2, 0.01% BSA, and 6 ug/ml PK7, in a buffer of 20 mM Tris-HCl (pH 7.5). The enzyme itself was the only substrate present (since autophosphorylation occurs); 100 uM 1NA-PP1 was used as a control inhibitor. Incubation time was 3 hours.
T2 sequence (O96214 whole entry): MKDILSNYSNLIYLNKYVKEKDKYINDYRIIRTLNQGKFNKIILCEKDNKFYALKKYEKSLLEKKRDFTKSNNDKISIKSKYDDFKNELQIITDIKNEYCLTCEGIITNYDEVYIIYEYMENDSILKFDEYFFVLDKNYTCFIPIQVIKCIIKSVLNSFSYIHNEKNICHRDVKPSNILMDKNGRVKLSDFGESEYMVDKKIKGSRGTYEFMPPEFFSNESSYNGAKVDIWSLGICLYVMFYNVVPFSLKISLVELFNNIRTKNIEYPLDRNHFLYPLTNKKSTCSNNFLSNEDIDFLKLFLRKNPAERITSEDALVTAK

Lysine--tRNA ligase = Lysine--tRNA ligase (Plasmodium falciparum (isolate 3D7), UniProt Q8IDJ8); assay: MMV: KRS recombinant Plasmodium falciparum Lysyl-tRNA-synthetase, assay with yeast tRNA, ATP, and lysine and 3 uM MMV malaria box compound, assay read out with kinase glo as % inhibition.
Chain of Lysine--tRNA ligase (Q8IDJ8 whole entry): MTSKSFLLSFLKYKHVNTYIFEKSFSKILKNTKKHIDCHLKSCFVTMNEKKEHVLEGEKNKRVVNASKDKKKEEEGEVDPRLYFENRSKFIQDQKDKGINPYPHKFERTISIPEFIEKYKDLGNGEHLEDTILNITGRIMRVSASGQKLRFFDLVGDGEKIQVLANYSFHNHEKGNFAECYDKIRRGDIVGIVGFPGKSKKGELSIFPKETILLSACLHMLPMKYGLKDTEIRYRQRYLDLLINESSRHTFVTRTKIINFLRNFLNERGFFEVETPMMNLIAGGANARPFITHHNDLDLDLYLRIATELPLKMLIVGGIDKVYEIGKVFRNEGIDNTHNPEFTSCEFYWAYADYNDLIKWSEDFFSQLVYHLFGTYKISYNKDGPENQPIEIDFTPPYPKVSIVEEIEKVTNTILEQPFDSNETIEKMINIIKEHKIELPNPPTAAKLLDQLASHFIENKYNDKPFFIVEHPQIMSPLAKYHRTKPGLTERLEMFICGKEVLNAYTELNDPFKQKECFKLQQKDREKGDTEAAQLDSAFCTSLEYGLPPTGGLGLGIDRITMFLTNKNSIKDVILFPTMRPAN

[2] = biological target: T3, Calcium-dependent protein kinase 4 (Plasmodium falciparum (isolate 3D7), UniProt Q8IBS5); assay: MMV: CDPK4 Protein kinase inhibition assay using recombinant PfCDPK4, syntide2 peptide substrate, ATP and KinaseGlo to measure % inhibition at 1 uM MMV box compound.
T3 sequence (Q8IBS5 whole entry): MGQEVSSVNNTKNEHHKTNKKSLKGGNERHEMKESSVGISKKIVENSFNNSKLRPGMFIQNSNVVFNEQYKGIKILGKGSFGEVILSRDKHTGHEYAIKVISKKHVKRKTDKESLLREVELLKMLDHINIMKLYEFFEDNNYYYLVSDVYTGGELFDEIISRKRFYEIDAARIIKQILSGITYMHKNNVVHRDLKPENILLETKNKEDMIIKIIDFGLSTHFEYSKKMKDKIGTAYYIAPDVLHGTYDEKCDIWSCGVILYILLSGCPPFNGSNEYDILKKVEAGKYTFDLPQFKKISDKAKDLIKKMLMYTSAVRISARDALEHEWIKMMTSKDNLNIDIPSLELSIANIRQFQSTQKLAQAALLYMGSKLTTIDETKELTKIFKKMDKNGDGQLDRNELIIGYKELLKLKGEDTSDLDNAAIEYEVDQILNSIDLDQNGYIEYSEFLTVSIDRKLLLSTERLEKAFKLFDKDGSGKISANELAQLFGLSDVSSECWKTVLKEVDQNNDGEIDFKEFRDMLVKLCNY

[3] = biological target: Calcium-dependent protein kinase 1 (Plasmodium falciparum, UniProt P62344); assay: MMV: CDPK1 Protein kinase inhibition assay using recombinant PfCDPK1, syntide 2 peptide substrate, ATP and KinaseGlo to measure % inhibition at 1 uM MMV box compound.
Chain of Calcium-dependent protein kinase 1 (P62344 whole entry): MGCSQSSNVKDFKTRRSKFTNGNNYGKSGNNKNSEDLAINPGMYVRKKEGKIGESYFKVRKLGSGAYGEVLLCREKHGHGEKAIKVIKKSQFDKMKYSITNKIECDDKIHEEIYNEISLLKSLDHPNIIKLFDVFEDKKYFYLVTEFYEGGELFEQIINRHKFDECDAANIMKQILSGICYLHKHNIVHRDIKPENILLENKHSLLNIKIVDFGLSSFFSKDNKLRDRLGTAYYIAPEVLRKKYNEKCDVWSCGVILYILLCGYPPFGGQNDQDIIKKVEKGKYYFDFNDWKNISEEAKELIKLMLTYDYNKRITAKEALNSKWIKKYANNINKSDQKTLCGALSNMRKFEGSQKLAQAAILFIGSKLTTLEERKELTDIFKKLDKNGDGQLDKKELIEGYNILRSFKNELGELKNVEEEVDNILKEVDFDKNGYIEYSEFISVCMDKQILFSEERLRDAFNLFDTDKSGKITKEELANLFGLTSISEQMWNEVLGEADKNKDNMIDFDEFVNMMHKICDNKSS

[4] = biological target: T4, Cdk-related protein kinase 6 (Plasmodium falciparum, UniProt O77239); assay: Final concentrations were 1.5 uM ATP, 5 mM MnCl2, and 15 ug/ml PK6 in a buffer of 100 mM Tris-HCl (pH 7.5). 50 ug/mL MBP was provided as the substrate; 10 uM staurosporine was used as a control inhibitor. Incubation time was 3 hours and 40 minutes.The catalytic activity of each kinase was considered proportional to ATP consumed, as determined from measurements of residual [ATP] with the luciferase-based reagent Kinase-Glo (Promega) following incubation. Luminescence (proportional to residual [ATP]) was measured on the plate readers FLx800 (BioTek Instruments, Winooski, VT, USA) and MicroBeta2.
T4 sequence (O77239 whole entry): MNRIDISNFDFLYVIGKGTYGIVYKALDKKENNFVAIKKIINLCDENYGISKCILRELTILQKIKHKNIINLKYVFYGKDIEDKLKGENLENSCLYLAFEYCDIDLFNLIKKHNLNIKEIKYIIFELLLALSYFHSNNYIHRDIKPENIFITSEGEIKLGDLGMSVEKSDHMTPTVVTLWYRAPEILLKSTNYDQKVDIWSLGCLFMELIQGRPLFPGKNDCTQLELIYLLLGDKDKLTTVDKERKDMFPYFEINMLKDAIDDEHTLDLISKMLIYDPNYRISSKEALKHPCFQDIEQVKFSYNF

[5] = biological target: T5, Mitogen-activated protein kinase (Plasmodium falciparum, UniProt Q25917); assay: Final concentrations were 1 uM ATP, 0.5 mM DTT, 1 mM MgCl2, 0.5 mg/mL BSA, and 10 ug/ml MAP2 in a buffer of 50 mM HEPES (pH 7.0). 0.5 mg/mL histone III-S served as the substrate (13); 100 uM AMP-PNP, an ATP analog, was used as a control inhibitor. Incubation time was 4 hours.
T5 sequence (Q25917 whole entry): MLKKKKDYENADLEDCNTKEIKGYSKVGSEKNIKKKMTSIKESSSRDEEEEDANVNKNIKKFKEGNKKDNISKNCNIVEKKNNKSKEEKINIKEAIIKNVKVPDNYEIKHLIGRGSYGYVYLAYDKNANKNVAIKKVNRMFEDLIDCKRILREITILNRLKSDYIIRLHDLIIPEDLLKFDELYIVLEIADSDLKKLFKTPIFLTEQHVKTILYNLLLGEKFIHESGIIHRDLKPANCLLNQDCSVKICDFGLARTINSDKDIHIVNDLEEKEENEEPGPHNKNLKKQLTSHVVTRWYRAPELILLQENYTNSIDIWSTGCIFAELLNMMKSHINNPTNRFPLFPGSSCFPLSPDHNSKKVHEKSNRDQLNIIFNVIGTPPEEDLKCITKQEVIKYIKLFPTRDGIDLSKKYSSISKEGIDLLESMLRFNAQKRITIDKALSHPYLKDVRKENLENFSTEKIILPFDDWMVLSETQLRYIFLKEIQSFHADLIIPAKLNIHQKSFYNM

Structure (SMILES) | IC50 (Proline--tRNA ligase) [nM] | IC50 [1] [nM] | IC50 (Lysine--tRNA ligase) [nM] | IC50 [2] [nM] | IC50 [3] [nM] | IC50 [4] [nM] | IC50 [5] [nM]
CCN1CCCC1CNc1[nH]cnc2c3cc(Cl)ccc3nc1-2 (stereo not given) | > 2500 | > 1000 | > 2500 | > 1000 | > 1000 | > 1000 | > 1000
CCOC(=O)c1cnc2ccc(CC)cc2c1O | > 2500 | > 1000 | > 2500 | > 1000 | > 1000 | > 1000 | > 1000
COc1ccc(-n2ccnc2SCC(=O)Nc2cc(C)ccc2C)c(OC)c1 | > 2500 | > 1000 | > 2500 | > 1000 | > 1000 | > 1000 | > 1000
CCN1CCN(Cc2ccc(NC(=O)c3cc4ccc5cccnc5c4[nH]3)cc2)CC1 | > 2500 | > 1000 | > 2500 | > 1000 | > 1000 | > 1000 | > 1000
CCOc1cc2c(cc1OCC)C(c1cc(OC)c(O)cc1Cl)NCC2 (stereo not given) | > 2500 | > 1000 | > 2500 | > 1000 | > 1000 | > 1000 | > 1000
COc1cccc(C=Cc2nc(=O)c3ccccc3o2)c1OC | > 2500 | > 1000 | > 2500 | > 1000 | > 1000 | > 1000 | > 1000
COc1ccc2c(c1)OC(O)(C(F)(F)C(F)(F)F)CC2=O (stereo not given) | > 2500 | > 1000 | > 2500 | > 1000 | > 1000 | > 1000 | > 1000
CCOC(=O)c1cn(CC)c2cc(N3CCCCC3)c(F)cc2c1=O | > 2500 | > 1000 | > 2500 | > 1000 | > 1000 | > 1000 | > 1000
CCCc1cc(O)c2c3c(c(=O)oc2c1)CN(C)CC3 | > 2500 | > 1000 | > 2500 | > 1000 | > 1000 | > 1000 | > 1000
COc1ccc2c(=O)cc(C(Cl)(Cl)Cl)oc2c1 | > 2500 | > 1000 | > 2500 | > 1000 | > 1000 | > 1000 | > 1000
COc1ccc(-c2nc3cc(Cc4ccc5[nH]c(-c6ccc(OC)cc6)nc5c4)ccc3[nH]2)cc1 | > 2500 | > 1000 | > 2500 | > 1000 | > 1000 | > 1000 | > 1000
Cc1cc(Nc2ccc(Cl)cc2)n2nc(C(F)(F)F)nc2n1 | > 2500 | > 1000 | > 2500 | > 1000 | > 1000 | > 1000 | > 1000
CCCCCCOC(=O)C1=C(C)NC(=O)NC1c1ccccc1F (stereo not given) | > 2500 | > 1000 | > 2500 | > 1000 | > 1000 | > 1000 | > 1000
Cc1ccc(Nc2nc(NCCO)c3ccccc3n2)cc1C | > 2500 | > 1000 | > 2500 | > 1000 | > 1000 | > 1000 | > 1000
COc1ccc(NC(=O)C2c3ccccc3C(=O)N(CC(C)C)C2c2cccs2)cc1 (stereo not given) | > 2500 | > 1000 | > 2500 | > 1000 | > 1000 | > 1000 | > 1000
